Laboratory results from patent US5116851A, “Pharmaceutical composition and method for treating cardiovascular diseases using substituted anilides and sulfonamides” (E. R. Squibb & Sons, Inc., priority 1990, dated 1992).

Key:
[1] = system: Ischemic and Nonischemic Isolated Rat Heart; assay: Isolated perfused rat heart (Langendorff), global ischemia/reperfusion: cardiac function, flow and LDH release; parameters: species or system rat (male Sprague-Dawley); FLOW (coronary blood flow): unit not given here; conditions: 1 μM
Method: Lactate dehydrogenase is an enzyme released in the heart during an ischemic event and is an index of cardiac cell necrosis. In the Grover et al. model, this is measured during reperfusion and an agent which provides for lower release levels of LDH is considered to offer greater cardioprotection since lower LDH indicates a smaller infarct size. Cardiac function is determined using the double product (DP) of heart rate times the left ventricular developed pressure (LVDP) divided by 1,000.
The lower the value for DP before ischemia for a given agent, the more cardiodepressant it is considered to be.
Male Sprague-Dawley rats (450-550 g) were used in all experiments. The rats were anesthetized using 30 mg/kg sodium pentobarbital (i.p.). They were intubated and then treated with i.v. heparin (1000 U/kg). While being mechanically ventilated, their hearts were perfused in situ via retrograde cannulation of the aorta. The hearts were then excised and quickly moved to a Langendorff apparatus where they were perfused with Krebs-Henseleit bicarbonate buffer (112 mM NaCl, 5 mM KCl, 1.2 mMMg SO4, 1 mM KH2 PO4, 1.25 mM CaCl2, 11.5 mM dextrose, and 2 mM pyruvate) at a constant pressure (75 mm Hg). A water filled latex balloon attached to a metal cannula was then inserted into the left ventricle and connected to a Statham pressure transducer for measurement of left ventricular pressure. The hearts were allowed to equilibrate for 15 minutes at which time end diastolic pressure (EDP) was adjusted to 5 mm Hg and this was maintained for 5 minutes. Pre-ischemia or pre-drug function, heart rate and coronary blood flow (extracorporeal electromagnetic flow probe, Carolina Medical Electronics, King, N.C.) were then measured. Cardiac function was determined using the double product of heart rate (HR) times left ventricular developed pressure (LVDP) divided by 1,000.
All of these hearts were treated with their respective drugs or vehicle for ten minutes. At this time, post-drug cardiac function and flow were measured and then the hearts were made globally ischemic by shutting off the buffer perfusion. The ischemia was maintained for 25 minutes at which time reperfusion with nondrug treated buffer was instituted. Reperfusion was maintained for 30 minutes and at this time reperfusion function and flow were again determined.
At the end of the reperfusion period, the reperfusion buffer was sampled for cumulative LDH release as previously described. LDH release was expressed as U/g preischemia heart weight for the 30 minute collection period. LDH release is a sensitive index for loss of cell viability. Determination of the relationship between pre-ischemic, post-drug cardiac function was made by dividing the double product (HR ×LVDP/1000) by the cumulative LDH release.
All data were analyzed using a one way analysis of variance. Multiple comparisons were done using the Duncan procedure. All data are expressed as the mean±SE.
The pre-ischemia DP values are a measure of the cardiodepression of the drug on the healthy cardiac tissue.
The post-ischemia LDH values are a measure of the cardioprotection or anti-ischemic activity of the drug. In this case, lower values indicate greater anti-ischemic activity or greater cardioprotection.
The LDH/DP values are the ratio of cardioprotection to cardiodepression, the lower values indicating a greater selectivity for anti-ischemic activity.
The post-ischemia DP indicates cardiodepression after the ischemic episode and the lower DP values here are indicative of agents which still remained in the cardiac tissue for more than 30 minutes post ischemia. [drawing 16]

[2] = system: isolated canine cardiac Purkinje fibers; assay: Calcium-dependent slow response action potential amplitude (SAPA), standard microelectrode techniques; format: cell-based; conditions: Canis lupus familiaris, read-out: IC50 in reducing slow response action potential amplitude (SAPA)
Method: (§1) The calcium channel blocking and sodium entry blocking activities of compounds of the present invention were tested using standard microelectrode techniques in isolated canine cardiac Purkinje fibers as reported in J. L. Bergey et al., "Antiarrhythmic, hemodynamic, and cardiac electrophysiological evaluation of N-(2,6-dimethylphenyl)-N'-[3-(1-methylethylamino)propyl]-urea), (Wy 42,362)", Arzneim -Forsch, 33:1258, 1983). […] Depression of this parameter indicates depression of calcium entry into cardiac tissue. […] Significant depression of the upstroke velocity (vmax) indicates the blocking of sodium entry into cardiac tissue.

[3] = system: isolated canine cardiac Purkinje fibers; assay: Normal action potential parameters incl. upstroke velocity (Vmax; sodium entry), standard microelectrode techniques; format: cell-based; conditions: for Vmax (velocity of upstroke): in V/s (unit assumed)
Method: as §1

rabbit aorta = assay: Reduction of tone of rabbit aorta by high potassium (Vasc. Ca^++ Block); format: cell-based; conditions: Oryctolagus cuniculus; read-out: IC50 in reducing tone of rabbit aorta by high potassium (Vasc. Ca^++ Block)
Excerpt: |(SAPA), in reducing maximum upstroke velocity (Vmax) |and in reducing tone of rabbit aorta by high potassium |(Vasc. Ca^++ Block)

[4] = system: 24 hour post-infarction arrhythmias in dogs; assay: Antiarrhythmic activity in standard canine arrhythmia model (24 hour post-infarction arrhythmias); format: in vivo, dog; conditions: intravenous doses ranging from 6 to 15 mg/kg
Method: Antiarrhythmic activity was confirmed for the compound of Example 1 using a standard canine arrhythmia model as reported in J. L. Bergey et al., "Antiarrhythmic, hemodynamic, and cardiac electrophysiological evaluation of N-(2,6-dimethylphenyl)-N'-[3-(1-methylethylamino)propyl]urea), (Wy 42,362)", Arzneim -Forsch, 33:1258, 1983). In dogs suffering from 24 hour post-infarction arrhythmias the compound of Example 1 reversed arrhythmias in 5 out of 5 dogs tested following intravenous doses ranging from 6 to 15 mg/kg.

[5] = Postischemia (30 min.), occlusion 25 minutes, reperfusion 30 minutes

IC50 [2]: > 10 µM
IC50 (rabbit aorta): 1.6 µM
SMILES: CN(C)CCCN(C(=O)Cc1ccccc1)c1ccccc1SCc1ccc(Cl)cc1 [Example 1, N-[2-[[(4-Chlorophenyl)methyl]thio]phenyl]-N-[3-(dimethylamino)propyl]benzeneacetamide]
DP (Double Product, HR x LVDP / 1,000) [1, 5]: 7
FLOW (coronary blood flow) [1, 5]: 12
HR (Heart Rate) [1, 5]: 211 beats/min
LVDP (Left Ventricular Developed Pressure) [1, 5]: 34 mmHg
LDH (Lactate Dehydrogenase Release) ([1]; Postischemia, cumulative over 30 min reperfusion, per g preischemia heart weight, lower = greater cardioprotection): 12 U/g
FLOW (coronary blood flow) ([1]; Preischemia (Post Drug)): 25
HR (Heart Rate) ([1]; Preischemia (Post Drug)): 229 beats/min
LVDP (Left Ventricular Developed Pressure) ([1]; Preischemia (Post Drug)): 90 mmHg
DP (Double Product, HR x LVDP / 1,000) ([1]; Preischemia (Post Drug), lower = more cardiodepressant): 21
cardioprotection compared with diltiazem ([1]; post-ischemia LDH): comparable to diltiazem in cardioprotection
LDH/DP ([1]; ratio of cardioprotection to cardiodepression, lower = greater selectivity): 0.55
APD 50 (action potential duration @ 50% repolarization) ([3]; 1 × 10^-5): 160 ± 3
APD90 (action potential duration @ 90% repolarization) ([3]; 1 × 10^-5): 320 ± 3
PP (peak potential) ([3]; 1 × 10^-5): 11 ± 2
RP (resting potential) ([3]; 1 × 10^-5): 89 ± 1
Vmax (velocity of upstroke) ([3]; 1 × 10^-5): 203 ± 19
APD 50 (action potential duration @ 50% repolarization) ([3]; 1 × 10^-6): 219 ± 3
APD90 (action potential duration @ 90% repolarization) ([3]; 1 × 10^-6): 320 ± 3
PP (peak potential) ([3]; 1 × 10^-6): 35 ± 1
RP (resting potential) ([3]; 1 × 10^-6): 94 ± 1
Vmax (velocity of upstroke) ([3]; 1 × 10^-6): 443 ± 7
APD 50 (action potential duration @ 50% repolarization) ([3]; 3 × 10^-6): 154 ± 3
APD90 (action potential duration @ 90% repolarization) ([3]; 3 × 10^-6): 305 ± 4
PP (peak potential) ([3]; 3 × 10^-6): 28 ± 1
RP (resting potential) ([3]; 3 × 10^-6): 89 ± 1
Vmax (velocity of upstroke) ([3]; 3 × 10^-6): 375 ± 11
IC50 ([3]; Canis lupus familiaris, purkinje, sodium entry, read-out: IC50 in reducing maximum upstroke velocity (Vmax)): 6.7 µM
reversed arrhythmias (dogs tested) [4]: 5 out of 5
